ChEMBL document CHEMBL1201862, “PubChem BioAssay data set” (2004)
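Five concentrations, 48 hours, 96-well plates. The concentration for 50% growth inhibition is given as GI50.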 Calls of active or inactive are those of the source. Cut-off read from the data, not from the text of the source: active = GI50 up to about 1.1 µM and inactive = higher.

Tests used:
Assay in all cases: inhibition of tumour cell growth, NCI panel, 48 h
786-0 = test system: 786-0
ACHN = test system: ACHN
Hs-578T = test system: Hs-578T
HCC 2998 = test system: HCC 2998
DU-145 = test system: DU-145
SF-539 = test system: SF-539
Malme-3M = test system: Malme-3M
RXF 393 = test system: RXF 393
NCI-H460 = test system: NCI-H460
UACC-257 = test system: UACC-257
TK-10 = test system: TK-10
HL-60 = test system: HL-60
HCT-116 = test system: HCT-116
CAKI-1 = test system: CAKI-1
MDA-N = test system: MDA-N
SW-620 = test system: SW-620
A498 = test system: A498
HOP-62 = test system: HOP-62
SNB-19 = test system: SNB-19
BT-549 = test system: BT-549

Measured: GI50

COC(=O)c1ccc(NCc2cc(O)ccc2O)cc1O
inactive: 786-0 8.07 µM | ACHN 9.68 µM | Hs-578T 15.7 µM | HCC 2998 13.8 µM | DU-145 12.3 µM | SF-539 1.91 µM | Malme-3M 16.4 µM | RXF 393 7.28 µM | NCI-H460 14.4 µM | UACC-257 15.7 µM | TK-10 16.7 µM | HL-60 1.67 µM | HCT-116 17.5 µM | CAKI-1 6.78 µM | MDA-N 10.7 µM | SW-620 6.55 µM | A498 20.7 µM | HOP-62 10.9 µM | SNB-19 13.2 µM | BT-549 3.44 µM

CC1(C)C2CC3C4CC5(Nc6ccccc6C5N41)[C@]3(C)CC2=O (some centres not stated)
inactive: 786-0 > 50 µM | ACHN > 50 µM | Hs-578T > 50 µM | HCC 2998 > 50 µM | DU-145 > 50 µM | SF-539 > 50 µM | Malme-3M > 50 µM | RXF 393 > 50 µM | NCI-H460 > 50 µM | UACC-257 > 50 µM | TK-10 > 50 µM | HL-60 > 50 µM | HCT-116 > 50 µM | CAKI-1 > 50 µM | MDA-N > 50 µM | SW-620 > 50 µM | A498 > 50 µM | HOP-62 > 50 µM | BT-549 > 50 µM

Cc1ccc(NC(=O)CCc2nnc3s/c(=C\C=C\c4ccccc4)c(=O)n23)cc1
inactive: 786-0 > 100 µM | ACHN > 100 µM | Hs-578T > 78 µM | HCC 2998 > 100 µM | DU-145 > 100 µM | SF-539 55.3 µM | Malme-3M > 100 µM | RXF 393 > 81.8 µM | NCI-H460 > 83.6 µM | UACC-257 > 95.7 µM | TK-10 > 100 µM | HL-60 56 µM | HCT-116 > 100 µM | CAKI-1 > 100 µM | MDA-N > 79.1 µM | SW-620 > 100 µM | A498 > 94.4 µM | HOP-62 > 95.5 µM | SNB-19 > 79.6 µM | BT-549 > 63.8 µM

Cc1cc(S(=O)(=O)Nc2nc(N)n[nH]2)c(S)cc1Cl
inactive: 786-0 > 10 µM | ACHN > 10 µM | Hs-578T > 10 µM | HCC 2998 > 10 µM | DU-145 > 10 µM | SF-539 > 10 µM | Malme-3M > 10 µM | RXF 393 > 10 µM | NCI-H460 > 10 µM | UACC-257 > 10 µM | TK-10 > 10 µM | HL-60 > 10 µM | HCT-116 > 10 µM | CAKI-1 > 10 µM | MDA-N > 10 µM | SW-620 > 10 µM | A498 > 10 µM | HOP-62 > 10 µM | SNB-19 > 10 µM | BT-549 > 10 µM

Cc1ccc(Nc2ncnc3sc(SCc4ccccc4)nc23)cc1
inactive: 786-0 > 100 µM | ACHN 32 µM | Hs-578T > 100 µM | HCC 2998 33.7 µM | DU-145 27.3 µM | SF-539 > 100 µM | Malme-3M > 100 µM | RXF 393 84.9 µM | NCI-H460 > 100 µM | UACC-257 > 100 µM | TK-10 52.4 µM | HL-60 > 100 µM | HCT-116 > 100 µM | CAKI-1 26 µM | MDA-N > 100 µM | SW-620 > 100 µM | A498 8.81 µM | HOP-62 > 100 µM | SNB-19 > 100 µM | BT-549 > 100 µM

CCOC(=O)c1cc([N+](=O)[O-])c(Sc2ncnc3nc[nH]c23)c([N+](=O)[O-])c1
inactive: 786-0 2.79 µM | ACHN 6.85 µM | Hs-578T 9.64 µM | HCC 2998 17.8 µM | DU-145 10.2 µM | SF-539 3.09 µM | Malme-3M 3.15 µM | RXF 393 9.59 µM | NCI-H460 7.5 µM | UACC-257 7.28 µM | HL-60 4.19 µM | HCT-116 1.87 µM | CAKI-1 2.37 µM | MDA-N 2.75 µM | SW-620 2.18 µM | A498 12.7 µM | HOP-62 11.1 µM | SNB-19 17.1 µM | BT-549 6.32 µM
active: TK-10 1.09 µM

C=CC(C)(C)/C=C/c1ccc(O)cc1
inactive: 786-0 27.7 µM | ACHN 28.9 µM | Hs-578T 39.2 µM | HCC 2998 27.9 µM | DU-145 40.4 µM | SF-539 30.1 µM | Malme-3M 36.8 µM | RXF 393 24.8 µM | NCI-H460 19.8 µM | UACC-257 24 µM | TK-10 36.1 µM | HL-60 37.6 µM | HCT-116 31.3 µM | CAKI-1 44.7 µM | MDA-N 35 µM | SW-620 33.3 µM | A498 28.3 µM | HOP-62 58.2 µM | SNB-19 44.3 µM | BT-549 36.5 µM

COC(=O)c1ccccc1C1CN=NC12Cc1c(C)c3c(c(C)c1C2=O)CCC3 (configuration not stated)
inactive: 786-0 76.9 µM | ACHN > 100 µM | Hs-578T > 100 µM | HCC 2998 > 100 µM | DU-145 > 100 µM | SF-539 > 100 µM | Malme-3M > 100 µM | RXF 393 > 100 µM | NCI-H460 > 100 µM | UACC-257 25.2 µM | TK-10 2.48 µM | HL-60 > 100 µM | HCT-116 37.6 µM | CAKI-1 > 100 µM | MDA-N > 100 µM | SW-620 > 100 µM | A498 > 100 µM | HOP-62 77.4 µM | SNB-19 > 100 µM | BT-549 > 100 µM

CCN(CC)C(=O)N[C@@H](CC(C)C)C(=O)NC
inactive: 786-0 > 100 µM | ACHN > 100 µM | Hs-578T > 100 µM | HCC 2998 > 100 µM | DU-145 > 100 µM | Malme-3M > 100 µM | RXF 393 > 100 µM | NCI-H460 > 100 µM | HL-60 43.3 µM | HCT-116 > 100 µM | CAKI-1 > 100 µM | MDA-N > 100 µM | SW-620 > 100 µM | A498 > 100 µM | HOP-62 > 100 µM | SNB-19 > 100 µM | BT-549 > 100 µM

Cc1ccccc1OC(C)C(=O)NN1C(=O)CSC1c1ccc(Cl)cc1 (configuration not stated)
inactive: 786-0 18.2 µM | ACHN 33 µM | Hs-578T 41.8 µM | HCC 2998 34.9 µM | DU-145 38.2 µM | SF-539 26.5 µM | Malme-3M 25.7 µM | RXF 393 38.5 µM | NCI-H460 26.1 µM | UACC-257 55 µM | TK-10 47.4 µM | HL-60 21.1 µM | HCT-116 31.4 µM | CAKI-1 56.6 µM | MDA-N 60.3 µM | SW-620 32.1 µM | A498 24 µM | HOP-62 21 µM | SNB-19 59.2 µM | BT-549 44.8 µM

CN(C)c1ccc(C(c2ccc(Cl)cc2)c2ccc(N(C)C)cc2)cc1
inactive: 786-0 > 100 µM | ACHN > 100 µM | Hs-578T 90.6 µM | HCC 2998 69 µM | DU-145 > 100 µM | SF-539 > 100 µM | Malme-3M 30.1 µM | RXF 393 28.8 µM | NCI-H460 > 100 µM | UACC-257 60.1 µM | TK-10 > 100 µM | HL-60 > 100 µM | HCT-116 > 100 µM | CAKI-1 > 100 µM | MDA-N 82.8 µM | SW-620 > 100 µM | A498 > 100 µM | HOP-62 > 100 µM | SNB-19 > 100 µM | BT-549 54.8 µM

O=C(NCCc1ccccc1)[C@H]1CCCC[C@@H]1CCO
inactive: 786-0 > 100 µM | ACHN > 100 µM | Hs-578T > 100 µM | HCC 2998 > 100 µM | DU-145 > 100 µM | SF-539 > 100 µM | RXF 393 > 100 µM | NCI-H460 > 100 µM | UACC-257 > 100 µM | TK-10 > 100 µM | HL-60 > 100 µM | HCT-116 > 100 µM | CAKI-1 > 100 µM | MDA-N > 100 µM | SW-620 > 100 µM | A498 > 100 µM | HOP-62 > 100 µM | BT-549 > 100 µM

N#CC(Nc1ccccc1)c1ccc(C(C#N)Nc2ccccc2)cc1 (configuration not stated)
inactive: 786-0 36.5 µM | ACHN 22.3 µM | Hs-578T > 100 µM | HCC 2998 30.3 µM | DU-145 44.1 µM | SF-539 25.7 µM | Malme-3M > 100 µM | RXF 393 > 100 µM | NCI-H460 44.6 µM | UACC-257 81.3 µM | TK-10 28.4 µM | HL-60 5.79 µM | HCT-116 16.7 µM | CAKI-1 61.4 µM | MDA-N 13.2 µM | SW-620 20.2 µM | A498 > 100 µM | SNB-19 44.5 µM | BT-549 38.6 µM

c1ccc2c(c1)Nc1nc3nonc3nc1N2
inactive: 786-0 > 100 µM | ACHN > 100 µM | Hs-578T > 100 µM | HCC 2998 > 100 µM | DU-145 > 100 µM | Malme-3M > 100 µM | RXF 393 > 100 µM | NCI-H460 > 100 µM | UACC-257 > 100 µM | TK-10 > 100 µM | HL-60 > 100 µM | HCT-116 > 100 µM | CAKI-1 > 100 µM | MDA-N > 100 µM | SW-620 > 100 µM | A498 > 100 µM | HOP-62 > 100 µM | SNB-19 > 100 µM | BT-549 > 100 µM
